Laboratory results as given in ChEMBL document CHEMBL1142283, “Thiosulfinates from Allium tuberosum L. induce apoptosis via caspase-dependent and -independent pathways in PC-3 human prostate cancer cells” (Bioorg Med Chem Lett, 2008).
The source made the active and inactive calls. The calls are words filed in the database; no cut-off is given here.

Key:
[1] = system: PC-3; assay: Induction of apoptosis in human PC3 cells assessed as caspase 3 activity at 10 ug/mL; type: functional, cell-based
[2] = system: PC-3; assay: Increase in AIF protein levels in human PC3 cells after 24 hrs by Western blot; type: functional, cell-based
[3] = system: PC-3; assay: Decrease in Bcl2 protein expression in human PC3 cells by Western blot; type: functional, cell-based
[4] = system: PC-3; assay: Induction of apoptosis in human PC3 cells assessed as caspase 9 activity at 10 ug/mL relative to control; type: functional
[5] = system: PC-3; assay: Increase in Bax protein expression in human PC3 cells by Western blot; type: functional, cell-based
[6] = system: PC-3; assay: Induction of apoptosis in human PC3 cells assessed as caspase 3 activity at 20 ug/mL; type: functional, cell-based
[7] = system: PC-3; assay: Induction of PARP cleavage in human PC3 cells after 24 hrs by Western blot; type: functional, cell-based
[8] = system: PC-3; assay: Induction of AIF protein translocation into nucleus in human PC3 cells after 24 hrs by immunostaining; type: functional, cell-based
[9] = system: LNCaP; assay: Cytotoxicity against human LNCap cells after 24 hrs by SRB assay; type: functional, cell-based
[10] = system: PC-3; assay: Induction of apoptosis in human PC3 cells after 24 hrs by Hoechst staining; type: functional, cell-based
[11] = system: PC-3; assay: Cytotoxicity against human PC3 cells after 24 hrs by SRB assay; type: functional, cell-based; details: PC-3, 24 h
[12] = system: PC-3; assay: Induction of apoptosis in human PC3 cells assessed as caspase 8 activity at 10 ug/mL relative to control; type: functional
[13] = system: PC-3; assay: Induction of apoptosis in human PC3 cells assessed as caspase 3 activity at 10 ug/mL relative to control; type: functional
[14] = Cytotoxicity against human RC58T/h/SA#4 cells after 24 hrs by SRB assay; type: functional, cell-based
[15] = system: PC-3; assay: Induction of cell death in human PC3 cells in presence of caspase inhibitor Z-VAD-fmk; type: functional, cell-based
[16] = system: PC-3; assay: Induction of apoptosis in human PC3 cells assessed as caspase 3 activity at 5 ug/mL; type: functional, cell-based
[17] = system: DU-145; assay: Cytotoxicity against human DU145 cells after 24 hrs by SRB assay; type: functional, cell-based; details: DU-145, 24 h
[18] = system: PC-3; assay: Induction of cell death in human PC3 cells by trypan blue assay; type: functional, cell-based
[19] = system: PC-3; assay: Induction of apoptosis in human PC3 cells assessed as DNA fragmentation at 20 ug/mL after 24 hrs by ELISA relative to control; type: functional
[20] = system: PC-3; assay: Cell cycle arrest in human PC3 cells assessed as accumulation at subG1 phase after 24 hrs by flow cytometry; type: functional, cell-based
[21] = system: PC-3; assay: Reversal of induction of apoptosis in human PC3 cells in presence of caspase inhibitor Z-VAD-fmk; type: functional, cell-based
[22] = system: PC-3; assay: Induction of apoptosis in human PC3 cells assessed as DNA fragmentation at 5 ug/mL after 24 hrs by ELISA relative to control; type: functional
[23] = system: PC-3; assay: Induction of apoptosis in human PC3 cells assessed as DNA fragmentation at 10 ug/mL after 24 hrs by ELISA relative to control; type: functional
[24] = system: PC-3; assay: Growth inhibition of human PC3 cells assessed as decrease in cell numbers by trypan blue assay; type: functional, cell-based
[25] = system: PC-3; assay: Growth inhibition of human PC3 cells by SRB assay; type: functional, cell-based; details: TDE = time-dependent effect
[26] = system: PC-3; assay: Induction of Bid protein cleavage in human PC3 cells by Western blot; type: functional, cell-based

SMILES | Activity [1] | Activity [2] | Activity [3] | Fold change [4] | Activity [5] | Activity [6] | Activity [7] | Activity [8] | IC50 [9] [µM] | Activity [10] | IC50 [11] [µM] | Fold change [12] | Fold change [13] | IC50 [14] [µM] | Activity [15] | Activity [16] | IC50 [17] [µM] | Activity [18] | Fold change [19] | Activity [20] | other results
CS[S+](C)[O-] (configuration not stated) | Active | Active | Dose-dependent effect | 2.1 | Dose-dependent effect | Active | Active | Active | 102 | Active | 166 | 1.9 | 1.7 | 96.1 | Active | Active | 184 | Dose-dependent effect | 1.8 | Dose-dependent effect | Activity [21]: Active; Fold change [22]: 1.3; Fold change [23]: 1.7; Activity [24]: Dose-dependent effect; Activity [25]: tde; Activity [26]: Active
C=CC[S+]([O-])SC (configuration not stated) | Active | Active | Dose-dependent effect | 2.1 | Dose-dependent effect | Active | Active | Active | 29.7 | Active | 62.9 | 1.9 | 1.7 | 25.3 | Active | Active | 85.8 | Dose-dependent effect | 1.8 | Dose-dependent effect | Activity [21]: Active; Fold change [22]: 1.3; Fold change [23]: 1.7; Activity [24]: Dose-dependent effect; Activity [25]: tde; Activity [26]: Active
